Experimental data: patent US20230126447A1, “OCULAR DRUG DEPOT FOR COMPLEMENT-MEDIATED DISORDERS” (priority 2020, published 2023)
Values joined by “and” are separate entries in the source; they are usually repeats but may differ in a detail not shown here. Equal entries are not always repeated. Where two headings read alike, the source gives them in different places.

Experiments:
[1] = QWBA tissue distribution of [14C] Compound 1, pigmented Long-Evans rats (PO, IV); assay type: in vivo; settings: male LE rats, 20 mg/kg PO
Procedure: (§1) This study was conducted to determine the tissue distribution of drug-related radioactivity following a single oral (PO) (20 mg/kg) or intravenous (IV) (5 mg/kg) administration of [^14C]
(§2) Ten adult male pigmented Long-Evans (LE) rats (Group 1), 1 adult male LE rat (Group 2), and 3 albino Wistar Han (WH) rats (Group 3) received a single oral 20 mg/kg (Groups 1 and 3) or IV 5 mg/kg (Group 2) dose of [^14C] […] The formulation was prepared at a target dose of 5 mg (IV) or 20 mg (PO) […]
(§3) The carcasses were frozen in hexane dry-ice and stored at or below −20° C. prior to processing for QWBA. Each carcass was embedded, cut into sagittal sections, and mounted for QWBA. […] The lower limit of quantitation was 0.105 μg equiv/g.

[2] = QWBA tissue distribution of [14C] Compound 1, albino Wistar Han rats (PO); assay type: in vivo; settings: albino male WH rats, 20 mg/kg PO
Procedure: as §1, §2, §3

[3] = Phase 1 single ascending dose plasma pharmacokinetics in healthy volunteers; assay type: in vivo, human
Procedure: This study was conducted in healthy human volunteers in a randomized, double-blind design. Compound 1 or placebo was administered as a single oral dose to twenty-eight healthy volunteers in three separate dose groups. […] Pharmacokinetic data from each volunteer is summarized in Table 29, and plasma concentration data is shown graphically in FIG. 19.

[4] = In vitro binding to synthetic melanin; settings: synthetic melanin 50 μg/mL, PBS, 37° C., 1 hour
Procedure: (§4) […] The melanin solution was stored in the dark at 37° C. until use.
(§5) Immediately after the assay, samples were added to an equal volume of warm PBS, aliquots (3 μL each) were removed, added to 100 μL of acetonitrile containing carbutamide as internal standard, and then diluted with water (197 μL). These time-zero samples, prepared in PBS only, were also used as calibration standards.
(§6) The assay plates containing samples with and without melanin were incubated in the dark with shaking at 37° C. for 1 hour. Following incubation, the samples were centrifuged for 15 minutes at approximately 4000 rpm at 37° C. to sediment the melanin. Sample supernatant (3 μL) was added to 100 μL of acetonitrile containing the internal standard and then diluted with water (197 μL).
(§7) The column was set to a temperature of 55° C. […]
(§8) Analytes and internal standards were detected using an Applied Biosystems Sciex API-5500 triple quadrupole mass spectrometer with Agilent 1260 Infinity Binary Pump and Apricot Designs ADDA High-Speed Dual Arm Autosampling System. The instrument was equipped with an electrospray ionization source (600° C.) operated in the positive ion mode. Analytes and internal standards for all samples were monitored in the multiple-reaction-monitoring scan mode.

[5] = In vitro binding to melanin from Sepia officinalis; settings: S. officinalis melanin 50 μg/mL, PBS, 37° C., 1 hour
Procedure: as §4, §5, §6, §7, §8

[6] = Stability under melanin binding assay conditions; settings: 1 h
Procedure: as §4, §6
% Stability=Mean Total Conc. (μM) after 1 Hour/Mean Total Conc. (μM) at Time Zero×100%

[7] = Group 1, 200 mg single oral dose, individual subjects
[8] = Group 2, 600 mg single oral dose, individual subjects
[9] = Group 3, 1200 mg single oral dose, individual subjects

For `CC(=O)c1nn(CC(=O)N2C[C@H](F)C[C@H]2C(=O)Nc2cccc(Br)n2)c2ccc(-c3cnc(C)nc3)cc12` [Compound 1, (2S,4R)-1-(2-(3-Acetyl-5-(2-methylpyrimidin-5-yl)-1H-indazol-1-yl)acetyl)-N-(6-bromopyridin-2-yl)-4-fluoropyrrolidine-2-carboxamide], the “Concentration of radioactivity at Tmax, adrenal gland cortex” value [1] was 33.5 μg equiv/g, the “Concentration of radioactivity at Tmax, liver” value [1] was 52.0 μg equiv/g and the “Concentration of radioactivity at Tmax, small intestine” value [1] was 77.9 μg equiv/g. For the same compound, the “Concentration of radioactivity at Tmax, stomach” value [1] was 374 μg equiv/g, the “Concentration of radioactivity at Tmax, tissues with the lowest concentrations (brain, spinal cord, bone, testis, lens of the eye)” value [1] was < 1.00 μg equiv/g and the “Concentration of radioactivity at Tmax, urinary bladder” value [1] was 54.2 μg equiv/g. The “Concentration of radioactivity at Tmax, white adipose” value [1] was 21.1 μg equiv/g, the “t1/2, eye uvea” value [1] was 576 h and the “t1/2, liver” value [1] was 48.5 h. For the same compound, the “t1/2, pigmented skin” value [1] was 472 h, the “Concentration of radioactivity at Tmax, bile” value ([1]; 1 h) was 232 μg equiv/g and the “Highest concentration of radioactivity in blood” value ([1]; 1 h post-dose) was 5.28 μg equiv/g. For the same compound, the “Concentration of radioactivity at Tmax, urine” value ([1]; 4 h) was 66.2 μg equiv/g, the “Concentration of radioactivity in blood” value ([1]; 8 h post-dose) was 0.184 μg equiv/g and the “Tissues with quantifiable concentrations at 672 h” value ([1]; 672 h) was “Only eye (uvea) and pigmented skin”. For the same compound, the “Concentration of radioactivity at Tmax, non-pigmented skin” value [2] was 2.98 μg equiv/g, the “Concentration of radioactivity at Tmax, uvea of the non-pigmented eye” value [2] was 1.68 μg equiv/g and the “Highest concentration of radioactivity in blood” value ([2]; 1 h post-dose) was 2.77 μg equiv/g. For the same compound, the “Concentration of radioactivity, uvea of the non-pigmented eye” value ([2]; 24 h) was “BQL”, the “Concentration of radioactivity, non-pigmented skin” value ([2]; 168 h) was “BQL” and the “AUC(0-24)” value [3, 7] was 3.3872 µg·h/mL and 4.12801 µg·h/mL and 2.3393 µg·h/mL and 3.61579 µg·h/mL and 1.88895 µg·h/mL and 2.22907 µg·h/mL. For the same compound, the “AUC(0-∞)” value [3, 7] was 3.61653 µg·h/mL and 4.24137 µg·h/mL and 2.56969 µg·h/mL and 3.82248 µg·h/mL and 1.99307 µg·h/mL and 2.38564 µg·h/mL, the Cmax [3, 7] was 0.95 µg/mL and 2.06 µg/mL and 0.764 µg/mL and 1.38 µg/mL and 0.635 µg/mL and 0.562 µg/mL and the Tmax [3, 7] was 1.25 h. For the same compound, the “AUC(0-24)” value [3, 8] was 6.59155 µg·h/mL and 6.13583 µg·h/mL and 6.02033 µg·h/mL and 4.0793 µg·h/mL and 7.2885 µg·h/mL, the “AUC(0-∞)” value [3, 8] was 6.80591 µg·h/mL and 7.33598 µg·h/mL and 6.90306 µg·h/mL and 4.6874 µg·h/mL and 8.67153 µg·h/mL and the Cmax [3, 8] was 2.48 µg/mL and 2.1 µg/mL and 1.38 µg/mL and 1.81 µg/mL. The Tmax [3, 8] was 2.00 h and 1.25 h, the “AUC(0-24)” value [3, 9] was 11.822 µg·h/mL and 10.2194 µg·h/mL and 8.4319 µg·h/mL and 11.3575 µg·h/mL and 14.054 µg·h/mL and the “AUC(0-∞)” value [3, 9] was 13.29729 µg·h/mL and 10.98271 µg·h/mL and 10.24393 µg·h/mL and 13.19018 µg·h/mL and 15.42493 µg·h/mL. For the same compound, the Cmax [3, 9] was 3.08 µg/mL and 3.23 µg/mL and 3.53 µg/mL and 1.94 µg/mL and 2.53 µg/mL and 4.1 µg/mL, the AUC(0-t) ([3]; human, po, 200 mg, Group 1, 200 mg single oral dose, Mean (N 6), read-out: AUC(0-24)) was 2.93 µg·h/mL and the AUC(0-inf) ([3]; human, po, 200 mg, Group 1, 200 mg single oral dose, Mean (N 6), read-out: AUC(0-∞)) was 3.1 µg·h/mL. It also gave a Cmax ([3]; human, po, 200 mg, Group 1, 200 mg single oral dose, Mean (N 6), read-out: Cmax) of 1.06 µg/mL, a Tmax ([3]; human, po, 200 mg, Group 1, 200 mg single oral dose, Mean (N 6), read-out: Tmax) of 1.79 h and a Tmax ([3]; human, po, 200 mg, Group 1, 200 mg single oral dose, individual subjects, read-out: Tmax) of 1.5 h. For the same compound, the AUC(0-t) ([3]; human, po, 200 mg, Group 1, 200 mg single oral dose, read-out: Mean AUC(0-24)) was 2.39 µg·h/mL, the AUC(0-inf) ([3]; human, po, 200 mg, Group 1, 200 mg single oral dose, read-out: Mean AUC(0-∞)) was 3.02 µg·h/mL and the Cmax ([3]; human, po, 200 mg, Group 1, 200 mg single oral dose, read-out: Mean Cmax) was 1.06 µg/mL. It also gave an AUC(0-t) ([3]; human, po, 600 mg, Group 2, 600 mg single oral dose, Mean (N 6), read-out: AUC(0-24)) of 6.19 µg·h/mL, an AUC(0-inf) ([3]; human, po, 600 mg, Group 2, 600 mg single oral dose, Mean (N 6), read-out: AUC(0-∞)) of 7.09 µg·h/mL and a Cmax ([3]; human, po, 600 mg, Group 2, 600 mg single oral dose, Mean (N 6), read-out: Cmax) of 2.02 µg/mL. For the same compound, the Tmax ([3]; human, po, 600 mg, Group 2, 600 mg single oral dose, Mean (N 6), read-out: Tmax) was 1.63 h, the AUC(0-t) ([3]; human, po, 600 mg, Group 2, 600 mg single oral dose, individual subjects, read-out: AUC(0-24)) was 7.02 µg·h/mL and the AUC(0-inf) ([3]; human, po, 600 mg, Group 2, 600 mg single oral dose, individual subjects, read-out: AUC(0-∞)) was 8.16 µg·h/mL. The Cmax ([3]; human, po, 600 mg, Group 2, 600 mg single oral dose, individual subjects, read-out: Cmax) was 2.18 µg/mL, the AUC(0-t) ([3]; human, po, 600 mg, Group 2, 600 mg single oral dose, read-out: Mean AUC(0-24)) was 6.19 µg·h/mL and the AUC(0-inf) ([3]; human, po, 600 mg, Group 2, 600 mg single oral dose, read-out: Mean AUC(0-∞)) was 7.09 µg·h/mL. The Cmax ([3]; human, po, 600 mg, Group 2, 600 mg single oral dose, read-out: Mean Cmax) was 2.02 µg/mL, the AUC(0-t) ([3]; human, po, 1200 mg, Group 3, 1200 mg single oral dose, Mean (N 6), read-out: AUC(0-24)) was 11.4 µg·h/mL and the AUC(0-inf) ([3]; human, po, 1200 mg, Group 3, 1200 mg single oral dose, Mean (N 6), read-out: AUC(0-∞)) was 13.2 µg·h/mL. The Cmax ([3]; human, po, 1200 mg, Group 3, 1200 mg single oral dose, Mean (N 6), read-out: Cmax) was 3.07 µg/mL, the Tmax ([3]; human, po, 1200 mg, Group 3, 1200 mg single oral dose, Mean (N 6), read-out: Tmax) was 2.5 h and the AUC(0-t) ([3]; human, po, 1200 mg, Group 3, 1200 mg single oral dose, individual subjects, read-out: AUC(0-24)) was 12.7 µg·h/mL. It also gave an AUC(0-inf) ([3]; human, po, 1200 mg, Group 3, 1200 mg single oral dose, individual subjects, read-out: AUC(0-∞)) of 15.8 µg·h/mL, a Tmax ([3]; human, po, 1200 mg, Group 3, 1200 mg single oral dose, individual subjects, read-out: Tmax) of 2.5 h and an AUC(0-t) ([3]; human, po, 1200 mg, Group 3, 1200 mg single oral dose, read-out: Mean AUC(0-24)) of 11.4 µg·h/mL. The AUC(0-inf) ([3]; human, po, 1200 mg, Group 3, 1200 mg single oral dose, read-out: Mean AUC(0-∞)) was 13.2 µg·h/mL, the Cmax ([3]; human, po, 1200 mg, Group 3, 1200 mg single oral dose, read-out: Mean Cmax) was 3.07 µg/mL and the “Bmax (binding capacity)” value [4] was 127 nmol/mg melanin. The “Bmax (binding capacity)” value [5] was 137 nmol/mg melanin and the “Mean Stability” value [6] was 94.3%.
